The source of these data is paper PMC9181852, “In Vivo and In Vitro Biological Evaluation and Molecular Docking Studies of Compounds Isolated from Micromeria biflora (Buch. Ham. ex D.Don) Benth” (Molecules, 2022).

Experiment [1] can be described thus: Inclined plane muscle relaxation model. It is filed as in vivo, mice (Balb/c). The following applies: dose 1 mg/kg. Here is the method:
(§1) Healthy mice (Balb/c) with weight ranging from 20 to 22 g and ages 9 to 10 weeks were used in this screening model. The grown animals were provided with standard laboratory conditions such as standard food and water ad libitum. The in vivo biological screening test was performed at the Department of Veterinary Medicine, College of Agriculture and Veterinary Medicine, Qassim University Buraydah, Saudi Arabia, as well as Swabi University, KP, Pakistan, according to published procedures.
An inclined plane screening procedure was adapted to identify the muscle relaxation effects of salicylalazine isolated from M. biflora according to a reported procedure. The inclined plane used in screening contained two plywood boards, and these boards were connected, where one board was at 60 0 from the base while the other one was aligned from the base. Various groups of animals were distributed into several groups; each group comprised six animals (n = 6). Animals in each group were administered water (10 mL/kg), standard drug (diazepam, 1 mg/kg), and salicylalazine at different doses of 2.5, 5, 10, 15, and 20 mg/kg, i.p. After various time intervals, such as 30, 60, and 90 min post-administration, animals were allowed on the higher part of the inclined plane for 30 s to drop or hang.

A short description of experiment [2]: Traction muscle relaxation model. The following applies: dose 1 mg/kg. Format: in vivo, mice (Balb/c). As to the method:
as §1
A traction screening model was adapted to identify the relaxation of muscle for salicylalazine isolated from M. biflora according to the standard method. The traction model was considered by using metallic wires covered with rubber, and then the wires were linked with each other using a stand around 60 cm upstairs of the lab bench. The animals were distributed into different groups, with each group comprising six animals (n = 6). The various groups of animals were administered water, diazepam, and salicylalazine at different doses. After administration, all groups of animals were subjected to traction screening after 30, 60, and 90 min. […] Traction testing was repeatedly performed to calculate the muscle relaxant ability of salicylalazine as per the reported method.

Another experiment is described as follows: Open field sedative test. It is filed as in vivo, mice (Balb/c). The following applies: dose 0.5 mg/kg, 30 min after administration. Here is the method: as §1
The sedative potential of salicylalazine isolated from M. biflora was assessed as per the reported procedure. The animals were divided into different groups, as designated above. The apparatuses used in this screening contained an area of white wood with a 150 cm diameter bordered by stainless steel walls and was separated into 19 squares by black lines. Then, the open field apparatus was positioned inside the light and sound-reduced room. The different groups of animals were administered distilled water, diazepam, and salicylalazine at different doses. Thirty minutes after administration, all groups of animals were permitted to move from the center of the design box. […] Statistical calculations were performed by counting the number of lines crossed by every animal.

The next experiment concerns HepG2. Put plainly: Anticancer MTT assay, HepG2. It is filed as cell-based. To be noted: Homo sapiens, 24 h. As to the method:
(§2) The MTT assay was used to assess the cytotoxicity of salicylalazine isolated from M. biflora as per the previously documented method. For the MTT assay, Gibco BRL was combined with 100 µg/mL of penicillin sodium salts, 10% FBS (Gibco), and sodium carbonate (2 mg/mL). The prepared medium was used to keep three human cancer cell lines: human hepatoma (HepG2), human A498, and renal NCI-h226 non-small cell lung). Mouse hepatocytes, including HepG2 and HepG-R, were planted in 96-well plates. The cell lines were preserved with salicylalazine (1.5–100 μM), hatched for 24 h, and then they were tracked using the MTT procedure^14. This method was used for all tested cell lines. The IC50 value of salicylalazine in different cell lines was calculated from the concentration-effect curves. The standard drug used in this experiment was paclitaxel.

For a further experiment, the system named is A498. As to the kind of experiment: Anticancer MTT assay, A498. Format: cell-based. The following applies: Homo sapiens, 24 h. As to the method:
as §2
Background: Tetrazolium dyes change colour on reduction, which living cells bring about.

The next experiment has as its system NCI-H226. Put plainly: Anticancer MTT assay, NCI-H226. It is filed as cell-based. To be noted: Homo sapiens, 24 h. As to the method: as §2
The subject of the next experiment is MDR2780AD. Put plainly: Anticancer MTT assay, MDR2780AD. It is filed as cell-based. The following applies: 24 h.
A short description of another experiment: Hot plate analgesic test. It is filed as in vivo, mice (Balb/c). To be noted: dose 10 mg/kg. As to the method:
as §1
The analgesic effect of salicylalazine isolated from M. biflora was obtained with help of a hot plate according to the published method. The animals were distributed into different groups according to the previously reported method. A preliminary screening test was performed on the animals using a hot plate (Harvard apparatus) sustained at 55 ± 2 °C. […] Group I (positive control) was administered with the standard drug, while Group II (negative control) was administered with normal saline. The other groups of animals were administered with 2.5, 5, 10, 15, and 20 mg/kg (PO). […] To avoid tissue damage, a cut-off time of 30 s was used for every animal. The latency time was recorded for all groups (n = 6) at consistent intervals (30, 60, 90, and 120 min).

Turning to `CN1C(=O)CN=C(c2ccccc2)c2cc(Cl)ccc21` [Diazepam, reference compound], the “Inclined Plane Test (%)” value in experiment [1] (30 min), in experiment [1] (60 min) and in experiment [1] (90 min) was 100 ± 0.00% each time. Further, the “Traction Test (%)” value in experiment [2] (30 min), in experiment [2] (60 min) and in experiment [2] (90 min) was 100 ± 0.00% in each case. Also, the “No of Lines Crossed” value in the experiment “Open field sedative test” is recorded as 9.01 ± 0.51.
As to `CC(=O)O[C@H]1C(=O)[C@@]2(C)[C@H]([C@H](OC(=O)c3ccccc3)[C@]3(O)C[C@H](OC(=O)[C@H](O)[C@@H](NC(=O)c4ccccc4)c4ccccc4)C(C)=C1C3(C)C)[C@]1(OC(C)=O)CO[C@@H]1C[C@@H]2O` [Paclitaxel, reference compound], the IC50 is 7.51 ± 0.3 µM with HepG2, 95.23 ± 0.23 µM in the experiment with A498, 61.29 ± 0.31 µM in the experiment on NCI-H226 and 180 ± 8 nM in the experiment with MDR2780AD.
Take `COc1cccc(C2(O)CCCCC2CN(C)C)c1` (stereo not drawn) [Tramadol, reference compound]: the “Latency time on hot plate” value amounted to 24.30 ± 0.07 s in “Hot plate analgesic test” (30 min), 25.90 ± 0.08 s in “Hot plate analgesic test” (60 min), 24.80 ± 0.14 s in “Hot plate analgesic test” (90 min) and 24.68 ± 0.40 s in the experiment “Hot plate analgesic test” (120 min).

The term IC50 denotes the concentration at which inhibition is half-maximal. A low value points to greater potency in that assay.
